# Reference: the kinase profiling compilation of Christmann-Franck et al. (2016)
# How the values were obtained:
# Assay in all cases: radiometric filter-binding kinase assay
# [1] = system: AKT1 (human), P31749 [S473D]
# [2] = biological target: AURKA (human) (UniProt O14965)
# [3] = biological target: BRSK1 (human) (UniProt Q8TDC3)
# [4] = biological target: BRSK2 (human) (UniProt Q8IWQ3)
# [5] = biological target: BTK (human) (UniProt Q06187)
# [6] = biological target: CaMK1 (human) (UniProt Q14012)
# [7] = biological target: DYRK2 (human) (UniProt Q92630)
# [8] = biological target: DYRK3 (human) (UniProt O43781)
# [9] = biological target: EPHA2 (human) (UniProt P29317)
# Chain of EPHA2 (human) (P29317 whole entry, looked up): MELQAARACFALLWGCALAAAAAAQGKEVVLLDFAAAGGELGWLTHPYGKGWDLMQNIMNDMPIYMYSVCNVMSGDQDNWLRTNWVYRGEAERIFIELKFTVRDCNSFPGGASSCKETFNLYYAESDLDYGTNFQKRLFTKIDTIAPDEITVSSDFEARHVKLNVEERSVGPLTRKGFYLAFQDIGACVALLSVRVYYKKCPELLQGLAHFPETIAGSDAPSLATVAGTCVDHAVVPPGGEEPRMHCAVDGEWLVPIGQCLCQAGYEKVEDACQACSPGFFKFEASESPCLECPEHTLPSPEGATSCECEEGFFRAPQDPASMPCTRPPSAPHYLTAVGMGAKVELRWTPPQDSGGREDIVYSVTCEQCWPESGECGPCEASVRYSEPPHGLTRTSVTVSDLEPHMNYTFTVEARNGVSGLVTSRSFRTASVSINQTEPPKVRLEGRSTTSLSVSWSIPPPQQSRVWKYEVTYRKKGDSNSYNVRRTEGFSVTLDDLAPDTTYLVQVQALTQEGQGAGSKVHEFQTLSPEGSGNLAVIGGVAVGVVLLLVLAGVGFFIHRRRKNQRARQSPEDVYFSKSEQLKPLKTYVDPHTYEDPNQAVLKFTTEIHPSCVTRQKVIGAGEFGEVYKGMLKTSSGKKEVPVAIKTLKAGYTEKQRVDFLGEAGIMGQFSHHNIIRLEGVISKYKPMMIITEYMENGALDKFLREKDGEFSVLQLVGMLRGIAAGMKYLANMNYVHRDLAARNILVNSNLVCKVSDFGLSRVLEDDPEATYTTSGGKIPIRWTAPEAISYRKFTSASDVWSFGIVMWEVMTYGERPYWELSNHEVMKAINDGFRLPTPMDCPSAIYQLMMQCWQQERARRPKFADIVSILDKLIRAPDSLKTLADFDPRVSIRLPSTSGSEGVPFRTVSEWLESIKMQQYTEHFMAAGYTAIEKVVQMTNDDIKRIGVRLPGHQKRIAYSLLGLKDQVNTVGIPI
# [10] = biological target: EPHB1 (human) (UniProt P54762)
# [11] = biological target: EPHB2 (human) (UniProt P29323)
# [12] = biological target: EPHB4 (human) (UniProt P54760)
# [13] = biological target: FLT1 (human) (UniProt P17948)
# [14] = biological target: GCK (human) (UniProt Q12851)
# [15] = biological target: HIPK1 (human) (UniProt Q86Z02)
# Chain of HIPK1 (human) (Q86Z02 whole entry, looked up): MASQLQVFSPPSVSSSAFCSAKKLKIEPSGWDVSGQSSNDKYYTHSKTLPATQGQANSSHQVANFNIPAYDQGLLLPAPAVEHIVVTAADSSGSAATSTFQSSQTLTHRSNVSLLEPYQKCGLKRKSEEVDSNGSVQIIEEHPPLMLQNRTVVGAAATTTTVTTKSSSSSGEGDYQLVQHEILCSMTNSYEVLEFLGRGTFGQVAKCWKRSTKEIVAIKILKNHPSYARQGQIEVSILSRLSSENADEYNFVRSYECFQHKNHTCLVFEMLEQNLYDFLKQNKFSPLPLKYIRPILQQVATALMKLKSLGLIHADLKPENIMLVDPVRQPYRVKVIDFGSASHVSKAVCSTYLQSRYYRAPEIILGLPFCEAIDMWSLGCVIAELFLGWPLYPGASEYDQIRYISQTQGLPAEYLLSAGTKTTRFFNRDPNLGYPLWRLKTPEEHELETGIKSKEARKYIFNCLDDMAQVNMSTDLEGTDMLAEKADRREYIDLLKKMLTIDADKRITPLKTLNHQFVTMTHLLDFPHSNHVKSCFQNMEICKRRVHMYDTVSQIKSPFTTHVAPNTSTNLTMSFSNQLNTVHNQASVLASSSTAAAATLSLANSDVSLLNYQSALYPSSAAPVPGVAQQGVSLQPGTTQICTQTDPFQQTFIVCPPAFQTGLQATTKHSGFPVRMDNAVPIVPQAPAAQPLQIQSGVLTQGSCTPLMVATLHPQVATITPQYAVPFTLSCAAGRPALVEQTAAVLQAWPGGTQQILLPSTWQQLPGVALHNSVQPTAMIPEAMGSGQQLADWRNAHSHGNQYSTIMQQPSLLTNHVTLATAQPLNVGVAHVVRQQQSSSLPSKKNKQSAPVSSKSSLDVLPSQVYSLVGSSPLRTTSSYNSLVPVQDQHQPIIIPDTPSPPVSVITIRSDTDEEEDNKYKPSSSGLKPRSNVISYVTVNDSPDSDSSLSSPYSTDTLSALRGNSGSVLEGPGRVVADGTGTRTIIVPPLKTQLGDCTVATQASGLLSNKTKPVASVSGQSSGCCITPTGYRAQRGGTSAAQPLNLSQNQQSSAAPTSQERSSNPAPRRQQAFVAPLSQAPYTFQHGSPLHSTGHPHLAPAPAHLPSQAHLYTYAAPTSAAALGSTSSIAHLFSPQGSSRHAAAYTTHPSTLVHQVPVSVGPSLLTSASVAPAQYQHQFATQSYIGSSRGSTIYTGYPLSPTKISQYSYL
# [16] = biological target: HIPK2 (human) (UniProt Q9H2X6)
# Chain of HIPK2 (human) (Q9H2X6 whole entry, looked up): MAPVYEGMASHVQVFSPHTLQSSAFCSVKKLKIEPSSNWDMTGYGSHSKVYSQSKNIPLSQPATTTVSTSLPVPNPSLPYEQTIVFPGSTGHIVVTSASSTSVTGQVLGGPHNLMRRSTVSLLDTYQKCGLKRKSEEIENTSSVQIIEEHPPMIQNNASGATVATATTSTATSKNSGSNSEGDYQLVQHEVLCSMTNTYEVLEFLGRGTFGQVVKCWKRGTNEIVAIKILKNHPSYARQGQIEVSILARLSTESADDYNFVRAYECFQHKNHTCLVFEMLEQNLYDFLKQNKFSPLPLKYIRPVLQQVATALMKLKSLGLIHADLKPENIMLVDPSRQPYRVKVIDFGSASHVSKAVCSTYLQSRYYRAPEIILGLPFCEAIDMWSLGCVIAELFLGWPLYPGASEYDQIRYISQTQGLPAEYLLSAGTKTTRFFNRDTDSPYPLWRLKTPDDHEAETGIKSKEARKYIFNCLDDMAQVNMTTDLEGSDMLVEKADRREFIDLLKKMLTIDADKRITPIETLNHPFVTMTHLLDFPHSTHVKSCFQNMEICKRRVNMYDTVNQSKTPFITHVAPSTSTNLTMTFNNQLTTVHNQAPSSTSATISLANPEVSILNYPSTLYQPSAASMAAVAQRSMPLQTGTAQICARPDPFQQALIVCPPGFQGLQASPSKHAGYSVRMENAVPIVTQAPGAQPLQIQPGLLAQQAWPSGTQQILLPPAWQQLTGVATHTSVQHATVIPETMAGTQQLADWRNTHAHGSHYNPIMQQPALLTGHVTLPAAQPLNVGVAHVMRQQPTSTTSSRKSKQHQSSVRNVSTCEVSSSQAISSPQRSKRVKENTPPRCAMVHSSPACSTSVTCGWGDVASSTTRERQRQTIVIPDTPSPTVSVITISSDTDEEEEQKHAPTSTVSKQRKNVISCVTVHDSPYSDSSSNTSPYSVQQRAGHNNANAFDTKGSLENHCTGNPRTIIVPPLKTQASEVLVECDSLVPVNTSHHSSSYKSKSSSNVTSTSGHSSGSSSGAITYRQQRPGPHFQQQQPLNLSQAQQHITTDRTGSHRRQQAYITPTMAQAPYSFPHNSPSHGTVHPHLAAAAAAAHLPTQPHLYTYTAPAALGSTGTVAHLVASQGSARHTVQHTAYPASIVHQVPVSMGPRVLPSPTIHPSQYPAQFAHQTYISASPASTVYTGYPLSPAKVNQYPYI
# [17] = biological target: INSR (human) (UniProt P06213)
# [18] = biological target: JAK2 JH1 JH2 (human) (UniProt O60674)
# [19] = biological target: MAP2K1 (human) (UniProt Q02750)
# [20] = biological target: MAP3K1 (human) (UniProt Q13233)
# [21] = biological target: MAP3K11 (human) (UniProt Q16584)
# [22] = biological target: MAP3K5 (human) (UniProt Q99683)
# [23] = biological target: MAPK10 (human) (UniProt P53779)
# [24] = biological target: MAPK11 (human) (UniProt Q15759)
# [25] = biological target: MAPK8 (human) (UniProt P45983)
# [26] = biological target: MAPK9 (human) (UniProt P45984)
# Chain of MAPK9 (human) (P45984 whole entry, looked up): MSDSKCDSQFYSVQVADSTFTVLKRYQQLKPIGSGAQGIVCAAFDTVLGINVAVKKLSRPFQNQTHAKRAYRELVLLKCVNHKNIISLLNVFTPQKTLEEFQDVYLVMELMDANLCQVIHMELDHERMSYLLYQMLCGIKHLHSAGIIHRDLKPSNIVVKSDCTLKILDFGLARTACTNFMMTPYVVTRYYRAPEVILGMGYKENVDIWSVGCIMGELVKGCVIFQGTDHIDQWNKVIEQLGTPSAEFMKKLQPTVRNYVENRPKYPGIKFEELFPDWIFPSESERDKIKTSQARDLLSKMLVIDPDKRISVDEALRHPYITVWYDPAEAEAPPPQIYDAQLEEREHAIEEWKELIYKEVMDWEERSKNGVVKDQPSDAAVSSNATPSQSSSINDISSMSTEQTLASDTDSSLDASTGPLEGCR
# [27] = biological target: MAPKAPK5 (human) (UniProt Q8IW41)
# Chain of MAPKAPK5 (human) (Q8IW41 whole entry, looked up): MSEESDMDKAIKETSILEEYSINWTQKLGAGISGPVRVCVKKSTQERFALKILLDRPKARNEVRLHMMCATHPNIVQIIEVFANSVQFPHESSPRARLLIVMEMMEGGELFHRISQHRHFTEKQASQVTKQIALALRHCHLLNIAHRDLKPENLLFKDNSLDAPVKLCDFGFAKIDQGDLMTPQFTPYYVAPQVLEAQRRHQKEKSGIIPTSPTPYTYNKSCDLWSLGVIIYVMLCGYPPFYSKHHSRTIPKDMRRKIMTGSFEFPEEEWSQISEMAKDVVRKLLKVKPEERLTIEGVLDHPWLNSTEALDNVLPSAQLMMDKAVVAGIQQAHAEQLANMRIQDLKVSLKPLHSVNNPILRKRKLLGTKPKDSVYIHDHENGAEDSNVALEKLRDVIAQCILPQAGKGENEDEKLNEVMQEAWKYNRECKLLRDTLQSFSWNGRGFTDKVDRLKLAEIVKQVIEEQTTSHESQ
# [28] = biological target: MARK3 (human) (UniProt P27448)
# [29] = biological target: PIM1 (human) (UniProt P11309)
# [30] = biological target: PRKCA (human) (UniProt P17252)
# [31] = system: RPS6KB1 (human), P23443 [T412E]
# [32] = biological target: STK3 (human) (UniProt Q13188)
# [33] = biological target: SYK (human) (UniProt P43405)
# [34] = biological target: TAOK1 (human) (UniProt Q7L7X3)
# [35] = biological target: TBK1 (human) (UniProt Q9UHD2)
# Chain of TBK1 (human) (Q9UHD2 whole entry, looked up): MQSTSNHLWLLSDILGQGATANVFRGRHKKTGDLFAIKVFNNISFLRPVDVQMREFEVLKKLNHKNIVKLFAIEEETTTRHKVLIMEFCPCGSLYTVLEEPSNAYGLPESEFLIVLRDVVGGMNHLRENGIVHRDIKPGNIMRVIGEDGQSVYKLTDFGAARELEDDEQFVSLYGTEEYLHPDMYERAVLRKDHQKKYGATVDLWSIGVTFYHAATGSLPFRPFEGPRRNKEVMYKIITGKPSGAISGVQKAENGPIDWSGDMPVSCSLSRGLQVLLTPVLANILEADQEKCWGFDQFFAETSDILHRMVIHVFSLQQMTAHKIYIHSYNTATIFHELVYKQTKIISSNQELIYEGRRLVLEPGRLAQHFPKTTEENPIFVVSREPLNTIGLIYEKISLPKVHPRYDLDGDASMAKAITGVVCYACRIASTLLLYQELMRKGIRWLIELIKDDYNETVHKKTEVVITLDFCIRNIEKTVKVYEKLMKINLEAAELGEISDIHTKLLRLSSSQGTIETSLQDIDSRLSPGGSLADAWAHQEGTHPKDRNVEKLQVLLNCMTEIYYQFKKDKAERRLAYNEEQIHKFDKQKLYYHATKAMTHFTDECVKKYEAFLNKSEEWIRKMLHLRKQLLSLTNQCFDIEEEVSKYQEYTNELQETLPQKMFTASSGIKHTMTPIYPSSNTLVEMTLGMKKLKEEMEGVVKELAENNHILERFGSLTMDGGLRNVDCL
# [36] = biological target: YES1 (human) (UniProt P07947)
smiles,measurement,setting,value
FC(F)(F)c1ccc(-c2ccc(Oc3cncc4sc(-c5nn[nH]n5)cc34)cc2)cc1,residual activity,[1]; compound 1.0 µM,99%
same,residual activity,[1]; compound 10.0 µM,73%
same,residual activity,[2]; compound 1.0 µM,108%
same,residual activity,[2]; compound 10.0 µM,63%
same,residual activity,[3]; compound 1.0 µM,138%
same,residual activity,[3]; compound 10.0 µM,104%
same,residual activity,[4]; compound 1.0 µM,115%
same,residual activity,[4]; compound 10.0 µM,105%
same,residual activity,[5]; compound 1.0 µM,98%
same,residual activity,[5]; compound 10.0 µM,84%
same,residual activity,[6]; compound 1.0 µM,93%
same,residual activity,[6]; compound 10.0 µM,73%
same,residual activity,[7]; compound 1.0 µM,16%
same,residual activity,[7]; compound 10.0 µM,3%
same,residual activity,[8]; compound 1.0 µM,18%
same,residual activity,[8]; compound 10.0 µM,3%
same,residual activity,[9]; compound 1.0 µM,126%
same,residual activity,[9]; compound 10.0 µM,94%
same,residual activity,[10]; compound 1.0 µM,108%
same,residual activity,[10]; compound 10.0 µM,100%
same,residual activity,[11]; compound 1.0 µM,111%
same,residual activity,[11]; compound 10.0 µM,120%
same,residual activity,[12]; compound 1.0 µM,109%
same,residual activity,[12]; compound 10.0 µM,110%
same,residual activity,[13]; compound 1.0 µM,96%
same,residual activity,[13]; compound 10.0 µM,29%
same,residual activity,[14]; compound 1.0 µM,68%
same,residual activity,[14]; compound 10.0 µM,17%
same,residual activity,[15]; compound 1.0 µM,65%
same,residual activity,[15]; compound 10.0 µM,12%
same,residual activity,[16]; compound 1.0 µM,22%
same,residual activity,[16]; compound 10.0 µM,11%
same,residual activity,[17]; compound 1.0 µM,100%
same,residual activity,[17]; compound 10.0 µM,91%
same,residual activity,[18]; compound 1.0 µM,99%
same,residual activity,[18]; compound 10.0 µM,46%
same,residual activity,[19]; compound 1.0 µM,87%
same,residual activity,[19]; compound 10.0 µM,31%
same,residual activity,[20]; compound 1.0 µM,109%
same,residual activity,[20]; compound 10.0 µM,93%
same,residual activity,[21]; compound 1.0 µM,91%
same,residual activity,[21]; compound 10.0 µM,61%
same,residual activity,[22]; compound 1.0 µM,95%
same,residual activity,[22]; compound 10.0 µM,72%
same,residual activity,[23]; compound 1.0 µM,85%
same,residual activity,[23]; compound 10.0 µM,96%
same,residual activity,[24]; compound 1.0 µM,102%
same,residual activity,[24]; compound 10.0 µM,100%
same,residual activity,[25]; compound 1.0 µM,103%
same,residual activity,[25]; compound 10.0 µM,101%
same,residual activity,[26]; compound 1.0 µM,113%
same,residual activity,[26]; compound 10.0 µM,100%
same,residual activity,[27]; compound 1.0 µM,110%
same,residual activity,[27]; compound 10.0 µM,67%
same,residual activity,[28]; compound 1.0 µM,100%
same,residual activity,[28]; compound 10.0 µM,51%
same,residual activity,[29]; compound 1.0 µM,70%
same,residual activity,[29]; compound 10.0 µM,17%
same,residual activity,[30]; compound 1.0 µM,107%
same,residual activity,[30]; compound 10.0 µM,59%
same,residual activity,[31]; compound 1.0 µM,98%
same,residual activity,[31]; compound 10.0 µM,50%
same,residual activity,[32]; compound 1.0 µM,93%
same,residual activity,[32]; compound 10.0 µM,76%
same,residual activity,[33]; compound 1.0 µM,114%
same,residual activity,[33]; compound 10.0 µM,102%
same,residual activity,[34]; compound 1.0 µM,65%
same,residual activity,[34]; compound 10.0 µM,30%
same,residual activity,[35]; compound 1.0 µM,109%
same,residual activity,[35]; compound 10.0 µM,63%
same,residual activity,[36]; compound 1.0 µM,100%
same,residual activity,[36]; compound 10.0 µM,87%
